Results from patent US9757404B2, “Combination comprising an omega-3 fatty acid composition and an SGLT2 inhibitor” (AstraZeneca AB, priority 2014, dated 2017).

Key:
[1] = test system: diet-induced obese mouse model of fatty liver disease and NASH (DIO-NASH); assay: Mouse DIO-NASH model, 6 weeks treatment, hepatic pathology score (Example 3); assay type: in vivo, C57Bl/6J male mice; details: DIO-NASH mice; for NAFLD activity score, post-hoc test comparing the control group with the other groups (FIG. 1): Kruskal-Wallis p <0.01; for NAFLD activity score, post-hoc test comparing the control group with the other groups (FIG. 1) / fibrosis stage, Kruskal-Wallis test vs vehicle control (FIG. 2): p<0.05 regarded as significant; for fibrosis stage, Kruskal-Wallis test vs vehicle control (FIG. 2): p=0.4
Description: Effect of SGLT-2 Inhibitors and Epanova Alone or in Combination on Metabolic Parameters and Hepatic Pathology Score in a Mouse DIO-NASH Model
Determine the effect of 6 weeks treatment with the SGLT2 inhibitors dapagliflozin, ipragliflozin and canagliflozin and the Omega-3 compound Epanova alone or in combination on NAFLD Activity Score (NAS) including fibrosis stage (post versus pre-treatment) in a diet-induced obese mouse model of fatty liver disease and NASH (DIO-NASH).
At 5 weeks of age, C57Bl/6J male mice are purchased from JanVier, France. During the acclimatization and diet-induction period, the mice are group housed five per cage under a 12:12 light dark cycle (lights on from 0400-1600 h) at controlled temperature conditions (22±1° C.; 50±10% relative humidity). Throughout the study period, the mice have ad libitum access to NASH diet (DIO-NASH) (D09100301, Research Diet) (40% fat (18% trans-fat)), 40% carbohydrates (20% fructose) and 2% cholesterol). The animals are kept on the diet for 28 weeks before experimentation. In addition, a sub-set of animals are given normal chow (Altromin 1324, Brogaarden) to be included as a lean control group (LEAN-CHOW). During post-OP recovery and study period, animals will be single-housed. BW will be recorded once daily during the study period. 24 h food and water intake will be recorded once weekly during the study period.
During the DIO-NASH diet-induction period, BW will be monitored once monthly. After 25 weeks of diet-induction, a liver biopsy will be obtained for hepatic progression of fibrosis and steatosis evaluated by histochemical analysis, and subsequently NAFLD Activity Score including fibrosis stage and optional gene expression analysis (see below). At day −6, animals are stratified into treatment groups according to levels of fibrosis (% collagen) followed by randomization based on 1) liver fibrosis and 2) BW. In addition, liver steatosis (% lipid) will be analyzed. At day −5, animals are EchoMRI scanned for body composition analysis.
Dosing volume is 5-20 ml/kg (TBD). Route of administration is per oral (PO) dosing by gavage. Dosing frequency will be once daily (QD). Day 0 is the first day of dosing. Animals are dosed with compound(s) and vehicle between 2-4 PM. Animals are dosed for 42 days. Last dose will be administered the day before termination (study day 41).
A liver pre-biopsy and terminal liver tissue from the left lateral lobe will be collected for NAS and assessment of fibrosis stage by use of clinical criteria outlined by Kleiner and colleagues (Design and validation of a histological scoring system for nonalcoholic fatty liver disease, Kleiner et al, Hepatology 41; 2005). The NAS is the sum of steatosis, lobular inflammation and hepatocellular ballooning scores:
To assess hepatic steatosis, ballooning degeneration, fibrosis and inflammation sections are stained with H&E, Sirius Red, CK18 (ballooning) and Galectin-3 (macrophages), respectively) followed by analysis with Visiomorph software (Visiopharm, Copenhagen, Denmark). Biopsy assessment of hepatic steatosis, fibrosis or inflammation will be described as percentage of total area using a protocol designed for the specific purpose.
Results are presented as mean±SEM (standard error of the mean) unless otherwise stated. Statistical evaluation of the data is carried out using Student's unpaired t-test or two-way ANOVA for comparison of LEAN-CHOW control versus DIO-NASH Vehicle. For comparison of DIO-NASH groups, one-way and two-way ANOVA are being applied where appropriate. Post-hoc analysis (Dunnett/Bonferroni) in cases with statistical significance is performed (p<0.05 considered significant).

[2] = test system: VCU (Virginia Commonwealth University) NASH mouse model; assay: VCU NASH mouse model, 4 weeks treatment, liver histology (Example 4); assay type: in vivo; details: VCU NASH mice, 4 weeks daily gavage; dapagliflozin 1 mg/kg/d, Epanova 600 mg/kg/d
Description: A further pre-clinical mouse study was carried out according to the Experimental plan described below:
Model: VCU (Virginia Commonwealth University) NASH mouse model; inbred C57bI6J/×129SI/SvlmJ given high fat, cholesterol, fructose and glucose diet for 16 weeks before starting pharmacological treatment.
Treatment: drugs will be administered by daily gavage. Gavage volume will not exceed 3 mL/Kg. vehicles will be olive oil and water. Epanova and dapagliflozin will be administered by daily gavage in one syringe.
Run-in: 16 weeks in high fat, cholesterol, fructose and glucose diet one week with vehicle gavage.
T=0 weeks: the mice will be matched based on body weight. The mice will be divided into 4 groups of 12 animals. Vehicle gavage for one week before commencing active treatment for 4 weeks.

two mouse models of NASH = assay: Overall summary of the two pre-clinical NASH mouse studies; assay type: in vivo
Description: We have investigated the effect of Epanova, dapagliflozin and the combination of the two components in two pre-clinical studies and a human clinical study, described in the Examples herein.
In the NASH mouse studies included in the present application, no changes in body weight, glucose or insulin levels or liver fat were observed, however the NASH mouse models used were not diabetic, but were obese and insulin resistant.

diabetic population = details: cited from earlier work
human SGLT2 (hSGLT2) = human SGLT2 (hSGLT2) (Homo sapiens, UniProt P31639); details: stated property, no value given; cited from earlier work
[3] = 6 weeks QD PO, dapagliflozin 1 mg/kg, Epanova 600 mg/kg, vs vehicle

Sequence of human SGLT2 (hSGLT2) (P31639 whole entry): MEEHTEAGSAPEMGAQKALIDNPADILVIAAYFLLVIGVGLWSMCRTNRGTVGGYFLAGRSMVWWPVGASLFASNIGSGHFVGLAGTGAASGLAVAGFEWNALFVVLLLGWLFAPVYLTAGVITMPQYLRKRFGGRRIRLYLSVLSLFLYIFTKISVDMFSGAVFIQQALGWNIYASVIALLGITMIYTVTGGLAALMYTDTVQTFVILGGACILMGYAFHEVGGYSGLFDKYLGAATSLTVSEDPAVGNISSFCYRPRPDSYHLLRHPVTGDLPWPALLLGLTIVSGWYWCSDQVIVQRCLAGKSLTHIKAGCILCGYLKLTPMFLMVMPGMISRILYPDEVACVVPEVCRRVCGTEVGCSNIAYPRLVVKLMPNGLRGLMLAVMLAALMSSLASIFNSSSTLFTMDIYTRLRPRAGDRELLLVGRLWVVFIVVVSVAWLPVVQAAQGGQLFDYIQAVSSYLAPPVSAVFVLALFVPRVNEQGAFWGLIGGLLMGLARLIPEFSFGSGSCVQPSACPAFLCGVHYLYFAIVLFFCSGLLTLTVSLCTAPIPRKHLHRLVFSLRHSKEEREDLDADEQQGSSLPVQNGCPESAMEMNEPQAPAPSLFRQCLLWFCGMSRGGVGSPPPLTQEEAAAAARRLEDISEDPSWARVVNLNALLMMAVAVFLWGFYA

| Compound | NAFLD activity score, post-hoc test comparing the control group with the other groups (FIG. 1) [1] | fibrosis stage, Kruskal-Wallis test vs vehicle control (FIG. 2) [1] | NAFLD activity scores at the end of the study (primary effect variable) [1, 3] | fibrosis stage at the end of the study (primary effect variable) [1, 3] | fibrosis, comparing baseline and end-of study biopsies ([1]; 6 weeks QD PO, post versus pre-treatment) | overall effect on histology (NAFLD Activity Score, fibrosis stage) [2] | effect of treatment on NASH (two mouse models of NASH) | liver fat content (diabetic population; diabetic population / diabetic patients) | body fat content (diabetic population; published studies (Kabir et al; Bolinder et al)) | selectivity for SGLT2 relative to SGLT1 (human SGLT2 (hSGLT2)) |
| --- | --- | --- | --- | --- | --- | --- | --- | --- | --- | --- |
| Cc1ccc([C@@H]2O[C@H](CO)[C@@H](O)[C@H](O)[C@H]2O)cc1Cc1ccc(-c2ccc(F)cc2)s1 [Canagliflozin, canagliflozin] | not significant | non-significant | – | – | – | – | – | – | – | – |
| CCOc1ccc(Cc2cc([C@@H]3O[C@H](CO)[C@@H](O)[C@H](O)[C@H]3O)ccc2Cl)cc1 [Dapagliflozin, dapagliflozin] | not significant | non-significant | No effects | No effects | reduced fibrosis | no effect | did not show any effect | tend to reduce liver fat content | reduce body fat content | High selectivity for SGLT2 |
| OC[C@H]1O[C@@H](c2ccc(F)c(Cc3cc4ccccc4s3)c2)[C@H](O)[C@@H](O)[C@@H]1O [Ipragliflozin, ipragliflozin] | not significant | non-significant | – | – | – | – | – | – | – | – |
